Laboratory results taken from ChEMBL document CHEMBL1201862, “PubChem BioAssay data set” (2004).
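Dose response: 5 concentrations. Exposure: 48 h. Format: 96-well plates. Endpoint: linear interpolation; highest concentration if not reached. At the GI50, growth is halved.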 Active and inactive are the calls of the source. No stated cut-off is given here; in the data, active = GI50 up to about 1.1 µM and inactive = higher.

Assays:
Experiment in all cases: NCI anticancer screen, dose series, 48 h
786-0 = tested on: 786-0
Hs-578T = tested on: Hs-578T
KM12 = tested on: KM12
A498 = tested on: A498
DU-145 = tested on: DU-145
SNB-75 = tested on: SNB-75
SW-620 = tested on: SW-620
CAKI-1 = tested on: CAKI-1
SNB-19 = tested on: SNB-19
HCC 2998 = tested on: HCC 2998
BT-549 = tested on: BT-549
MDA-MB-435 = tested on: MDA-MB-435
IGROV-1 = tested on: IGROV-1
HCT-116 = tested on: HCT-116
PC-3 = tested on: PC-3
UACC-62 = tested on: UACC-62
M14 = tested on: M14
Malme-3M = tested on: Malme-3M
SR = tested on: SR
OVCAR-8 = tested on: OVCAR-8
OVCAR-4 = tested on: OVCAR-4
RXF 393 = tested on: RXF 393
MDA-N = tested on: MDA-N
SF-268 = tested on: SF-268
ACHN = tested on: ACHN
HOP-62 = tested on: HOP-62
RPMI-8226 = tested on: RPMI-8226
SN12C = tested on: SN12C
NCI-H23 = tested on: NCI-H23
UO-31 = tested on: UO-31
U-251 = tested on: U-251
LOX IMVI = tested on: LOX IMVI
T47D = tested on: T47D
K562 = tested on: K562
NCI-H460 = tested on: NCI-H460
MOLT-4 = tested on: MOLT-4
MDA-MB-231 = tested on: MDA-MB-231
HCT-15 = tested on: HCT-15
SK-OV-3 = tested on: SK-OV-3
OVCAR-3 = tested on: OVCAR-3
SK-MEL-5 = tested on: SK-MEL-5
CCRF-CEM = tested on: CCRF-CEM
SK-MEL-2 = tested on: SK-MEL-2
SF-295 = tested on: SF-295
HT-29 = tested on: HT-29
HL-60 = tested on: HL-60
COLO 205 = tested on: COLO 205
UACC-257 = tested on: UACC-257
NCI-H226 = tested on: NCI-H226
SK-MEL-28 = tested on: SK-MEL-28
HOP-92 = tested on: HOP-92
A549 = tested on: A549
OVCAR-5 = tested on: OVCAR-5
NCI/ADR-RES = tested on: NCI/ADR-RES
NCI-H522 = tested on: NCI-H522
EKVX = tested on: EKVX
MCF7 = tested on: MCF7
SF-539 = tested on: SF-539
TK-10 = tested on: TK-10

## CC(C)(CO)CNc1cc(=O)[nH]c(N)n1
786-0
  GI50: > 100 µM (inactive)
Hs-578T
  GI50: > 100 µM (inactive)
KM12
  GI50: > 100 µM (inactive)
A498
  GI50: > 100 µM (inactive)
DU-145
  GI50: > 100 µM (inactive)
SNB-75
  GI50: > 100 µM (inactive)
SW-620
  GI50: > 100 µM (inactive)
CAKI-1
  GI50: > 100 µM (inactive)
SNB-19
  GI50: > 100 µM (inactive)
HCC 2998
  GI50: > 100 µM (inactive)
BT-549
  GI50: > 100 µM (inactive)
MDA-MB-435
  GI50: > 100 µM (inactive)
IGROV-1
  GI50: > 100 µM (inactive)
HCT-116
  GI50: > 100 µM (inactive)
PC-3
  GI50: > 100 µM (inactive)
UACC-62
  GI50: > 100 µM (inactive)
M14
  GI50: > 100 µM (inactive)
Malme-3M
  GI50: > 100 µM (inactive)
SR
  GI50: > 100 µM (inactive)
OVCAR-8
  GI50: > 100 µM (inactive)
OVCAR-4
  GI50: > 100 µM (inactive)
RXF 393
  GI50: > 100 µM (inactive)
MDA-N
  GI50: > 100 µM (inactive)
SF-268
  GI50: > 100 µM (inactive)
ACHN
  GI50: > 100 µM (inactive)
HOP-62
  GI50: > 100 µM (inactive)
RPMI-8226
  GI50: > 100 µM (inactive)
SN12C
  GI50: > 100 µM (inactive)
NCI-H23
  GI50: > 100 µM (inactive)
UO-31
  GI50: > 100 µM (inactive)
U-251
  GI50: > 100 µM (inactive)
LOX IMVI
  GI50: > 100 µM (inactive)
T47D
  GI50: > 100 µM (inactive)
K562
  GI50: > 100 µM (inactive)
NCI-H460
  GI50: > 100 µM (inactive)
MOLT-4
  GI50: > 100 µM (inactive)
MDA-MB-231
  GI50: > 100 µM (inactive)
HCT-15
  GI50: > 100 µM
SK-OV-3
  GI50: > 100 µM (inactive)
OVCAR-3
  GI50: > 100 µM (inactive)
SK-MEL-5
  GI50: > 100 µM (inactive)
CCRF-CEM
  GI50: > 100 µM (inactive)
SK-MEL-2
  GI50: > 100 µM (inactive)
SF-295
  GI50: > 100 µM (inactive)
HT-29
  GI50: > 100 µM (inactive)
HL-60
  GI50: > 100 µM (inactive)
COLO 205
  GI50: > 100 µM (inactive)
UACC-257
  GI50: > 100 µM (inactive)
NCI-H226
  GI50: > 100 µM (inactive)
SK-MEL-28
  GI50: > 100 µM (inactive)
HOP-92
  GI50: > 100 µM (inactive)
A549
  GI50: > 100 µM (inactive)
OVCAR-5
  GI50: > 100 µM (inactive)
NCI/ADR-RES
  GI50: > 100 µM (inactive)
NCI-H522
  GI50: > 100 µM (inactive)
EKVX
  GI50: > 100 µM (inactive)
MCF7
  GI50: > 100 µM (inactive)

## Cc1nc2ccc(S(=O)(=O)Nc3ccccn3)cc2c(=O)n1NS(=O)(=O)c1ccccn1
786-0
  GI50: > 100 µM (inactive)
Hs-578T
  GI50: > 100 µM (inactive)
KM12
  GI50: > 100 µM (inactive)
A498
  GI50: > 100 µM (inactive)
DU-145
  GI50: > 100 µM (inactive)
SNB-75
  GI50: > 100 µM (inactive)
SW-620
  GI50: > 100 µM (inactive)
CAKI-1
  GI50: > 100 µM (inactive)
SNB-19
  GI50: > 100 µM (inactive)
HCC 2998
  GI50: > 100 µM (inactive)
BT-549
  GI50: > 100 µM (inactive)
MDA-MB-435
  GI50: > 100 µM (inactive)
IGROV-1
  GI50: > 100 µM (inactive)
HCT-116
  GI50: > 100 µM (inactive)
PC-3
  GI50: > 100 µM (inactive)
UACC-62
  GI50: > 100 µM (inactive)
M14
  GI50: > 100 µM (inactive)
Malme-3M
  GI50: > 100 µM (inactive)
SR
  GI50: > 100 µM (inactive)
OVCAR-8
  GI50: > 100 µM (inactive)
OVCAR-4
  GI50: > 100 µM (inactive)
RXF 393
  GI50: > 100 µM (inactive)
MDA-N
  GI50: > 100 µM (inactive)
SF-268
  GI50: > 100 µM (inactive)
ACHN
  GI50: > 100 µM (inactive)
HOP-62
  GI50: > 100 µM (inactive)
RPMI-8226
  GI50: > 100 µM (inactive)
SN12C
  GI50: > 100 µM (inactive)
NCI-H23
  GI50: > 100 µM (inactive)
UO-31
  GI50: > 100 µM (inactive)
U-251
  GI50: > 100 µM (inactive)
LOX IMVI
  GI50: > 100 µM (inactive)
T47D
  GI50: > 100 µM (inactive)
K562
  GI50: > 100 µM (inactive)
NCI-H460
  GI50: > 100 µM (inactive)
MOLT-4
  GI50: > 100 µM (inactive)
SF-539
  GI50: > 100 µM (inactive)
MDA-MB-231
  GI50: > 100 µM (inactive)
HCT-15
  GI50: > 100 µM
SK-OV-3
  GI50: > 100 µM (inactive)
OVCAR-3
  GI50: > 100 µM (inactive)
SK-MEL-5
  GI50: > 100 µM (inactive)
CCRF-CEM
  GI50: > 100 µM (inactive)
SK-MEL-2
  GI50: > 100 µM (inactive)
SF-295
  GI50: > 100 µM (inactive)
HT-29
  GI50: > 100 µM (inactive)
HL-60
  GI50: > 100 µM (inactive)
COLO 205
  GI50: > 100 µM (inactive)
UACC-257
  GI50: > 100 µM (inactive)
NCI-H226
  GI50: > 100 µM (inactive)
TK-10
  GI50: > 100 µM (inactive)
SK-MEL-28
  GI50: > 100 µM (inactive)
HOP-92
  GI50: > 100 µM (inactive)
OVCAR-5
  GI50: > 100 µM (inactive)
NCI/ADR-RES
  GI50: > 100 µM (inactive)
NCI-H522
  GI50: > 100 µM (inactive)
EKVX
  GI50: > 100 µM (inactive)
MCF7
  GI50: > 100 µM (inactive)

## CC(=O)Oc1ccc(/C=C/C(=O)NCCOC(=O)/C=C/c2ccc(OC(C)=O)c(OC(C)=O)c2)cc1OC(C)=O
786-0
  GI50: 19.5 µM (inactive)
Hs-578T
  GI50: 33.6 µM (inactive)
KM12
  GI50: 32.4 µM (inactive)
A498
  GI50: 31.7 µM (inactive)
DU-145
  GI50: 20.6 µM (inactive)
SNB-75
  GI50: 20.1 µM (inactive)
SW-620
  GI50: 19.3 µM (inactive)
CAKI-1
  GI50: 32.8 µM (inactive)
SNB-19
  GI50: 21.2 µM (inactive)
HCC 2998
  GI50: 34.3 µM (inactive)
BT-549
  GI50: 38.7 µM (inactive)
MDA-MB-435
  GI50: 31.7 µM (inactive)
IGROV-1
  GI50: 33 µM (inactive)
HCT-116
  GI50: 14.5 µM (inactive)
PC-3
  GI50: 34 µM (inactive)
UACC-62
  GI50: 18.7 µM (inactive)
M14
  GI50: 27.8 µM (inactive)
Malme-3M
  GI50: 28.5 µM (inactive)
SR
  GI50: 14.1 µM (inactive)
OVCAR-8
  GI50: 25.2 µM (inactive)
OVCAR-4
  GI50: 18.4 µM (inactive)
RXF 393
  GI50: 11.7 µM (inactive)
MDA-N
  GI50: 22.5 µM (inactive)
SF-268
  GI50: 20 µM (inactive)
ACHN
  GI50: 26.2 µM (inactive)
HOP-62
  GI50: 21.9 µM (inactive)
RPMI-8226
  GI50: 26.2 µM (inactive)
SN12C
  GI50: 26.1 µM (inactive)
NCI-H23
  GI50: 26.4 µM (inactive)
UO-31
  GI50: 22.9 µM (inactive)
U-251
  GI50: 28.4 µM (inactive)
LOX IMVI
  GI50: 13.9 µM (inactive)
T47D
  GI50: 20.4 µM (inactive)
K562
  GI50: 32.4 µM (inactive)
NCI-H460
  GI50: 32 µM (inactive)
MOLT-4
  GI50: 4.8 µM (inactive)
SF-539
  GI50: 35.7 µM (inactive)
MDA-MB-231
  GI50: 45.2 µM (inactive)
HCT-15
  GI50: 34.8 µM
SK-OV-3
  GI50: 42 µM (inactive)
OVCAR-3
  GI50: 16.1 µM (inactive)
SK-MEL-5
  GI50: 17.6 µM (inactive)
CCRF-CEM
  GI50: 0.571 µM (active)
SK-MEL-2
  GI50: 46.5 µM (inactive)
SF-295
  GI50: 23.7 µM (inactive)
HT-29
  GI50: 25.6 µM (inactive)
COLO 205
  GI50: 42.5 µM (inactive)
UACC-257
  GI50: 31.3 µM (inactive)
TK-10
  GI50: 23 µM (inactive)
SK-MEL-28
  GI50: 34.4 µM (inactive)
HOP-92
  GI50: 28.2 µM (inactive)
A549
  GI50: 57.5 µM (inactive)
OVCAR-5
  GI50: 23.8 µM (inactive)
NCI/ADR-RES
  GI50: 70.1 µM (inactive)
NCI-H522
  GI50: 8.97 µM (inactive)
EKVX
  GI50: 34.7 µM (inactive)
MCF7
  GI50: 29.5 µM (inactive)
